Assay results published in patent US8906357B2, “Treatment of multiple sclerosis with masitinib” (AB Science, priority 2010, dated 2014).
Values joined by “and” are separate entries in the source; they are usually repeats but may differ in a detail not shown here. Equal entries are not always repeated. “Also recorded” adds a separate entry of the source. Where two headings read alike, the source gives them in different places.

Assays:
[1] = test system: patients with PPMS or rfSPMS;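 note: oral masitinib started at 3 or 6 mg/kg/day split twice daily, with up to two 1.5 mg/kg/day increases permitted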
Experimental: Patients were randomized to receive orally administered masitinib at an initial dose of 3 or 6 mg/kg/day b.i.d, with two dose increases of 1.5 mg/kg/day permitted in the event of lack of activity and manageable toxicity. Masitinib and placebo were supplied as 100 or 200 mg tablets. The initial study had three arms but this was amended to close the 3 mg/kg/day bid arm after approximately 1 year.
MS evaluations were performed at screening, at week 0 (baseline), at month 1, 2, 3, 6, 9, 12, 18 and 24 or at the withdrawal visit. […] Masitinib tolerance was assessed by clinical and biological safety parameters.
Patients having SPMS with relapse in the 2 years before inclusion were excluded. No oral or parenteral concomitant corticosteroids were permitted for the duration of study, except in case of protocol-defined demyelinating event (methylprednisolone at 1 g/day for 3 days). No immunomodulating, immunosuppressing, chemotherapy and paracetamol concomitant administration were permitted for the duration of the study. Concomitant analgesic without anti-inflammatory action and oral narcotic analgesic were not allowed on the day of a study visit until all efficacy evaluations were completed. Concomitant physical therapy was allowed in patients already receiving such therapy at study entry. To manage rash, a mandatory concomitant treatment (cetirizine, 10 mg/day for 30 days) was combined with masitinib.
The latter is a multidimensional, MS-specific outcome measure, comprising of a timed 25-foot walk (T25FW) test measuring leg function and ambulation, a 9-hole peg test (9-HPT) measuring arm and hand function and a Paced Auditory Serial Addition Test 3 seconds (PASAT-3″) measuring cognitive function. The MSFC was calculated as described in the National Multiple Sclerosis Society MSFC administration and scoring manual by averaging the z-scores from each components of the MSFC.
Adverse events (AE) were described by duration, intensity, relation to masitinib and course of action. Intensities were graded either mild (signs and symptoms are present without functional repercussions), moderate (there are functional repercussions without putting the patient's health at risk), or severe (functional alterations or incapacity or definite risk for the patient health).

[2] = test system: wild-type and juxtamembrane-mutated c-Kit receptors; details: results in cell cycle arrest and apoptosis of c-Kit dependent cell lines; cited from earlier work
[3] = test system: patients with RRMS or rSPMS
Experimental: A multicenter, open-label, non-controlled, proof-of-concept clinical trial, designed to evaluate the efficacy and safety of oral masitinib administered at 3 or 6 mg/kg/day for 36 weeks in patients with RRMS or rSPMS.
Eligible patients should have had at least one active gadolinium lesion at any of the three MRI performed during an 8 week run-in period and an EDSS score within the range of 2.0 to 6.5 inclusive.

mouse EAE model of MS = assay: Mouse EAE model of MS (MOG-induced disease in C57BL/6 mice), daily clinical score; format: in vivo; details: days 26-35
Experimental: The ability and effect of masitinib in the inhibition of MC function in MS was explored using the EAE murine model. The myelin oligodendrocyte glycoprotein (MOG)-induced disease in C57BL/6 mice is considered to be a model for all progressive foinis of MS. C57BL/6 mice were immunized with 300 ng MOG35-55 peptide (an immunological target in the human disease) on days 0 (in complete Freund's adjuvant) and 7 (in incomplete Freund's adjuvant) and 250 ng pertussis was administered intravenously on days 0 and 2. Mice were scored daily by visual assessment of symptoms on a scale of 0-5 where 1 denotes a flaccid tail, 2 denotes hind limb weakness, 3 denotes hind limb paralysis, 4 denotes an inability to right from supine and 5 indicates death. Statistical analyzes of significance between mean clinical scores were performed using Bonferroni's Multiple Comparison Test-One way ANOVA or paired t tests. Statistical analyses were performed for the daily intervals between days 26-35. Five mice per experimental group were administrated the following treatment every day from the first day of immunization (day 0): • Vehicle (PBS) • Masitinib 25 mg/kg, 2 times per day, intraperitoneal injection • Masitinib 12.5 mg/kg, 2 times per day, intraperitoneal injection

human cord blood MCs = details: cited from earlier work
[4] = during the treatment period (W0 to W36)

For Cc1ccc(NC(=O)c2ccc(CN3CCN(C)CC3)cc2)cc1Nc1nc(-c2cccnc2)cs1 [masitinib, 4-(4-methylpiperazin-1-ylmethyl)-N-[4-methyl-3-(4-pyridin-3ylthiazol-2-ylamino)phenyl]benzamide], the “MSFC mean percentage change from baseline” value (shortened to “MSFC mean percentage change”) ([1]; All (masitinib n = 24), M3, LOCF) was 78%, the “MSFC mean percentage change” value ([1]; All (masitinib n = 24), M3, LOCF, listed as Masitinib) was 78 ± 284% and the “MSFC mean percentage change” value ([1]; All (masitinib n = 24), M6, LOCF) was 156 ± 274%. For the same compound, the “MSFC mean percentage change” value ([1]; All (masitinib n = 24), M9, LOCF) was 70 ± 267%, the “MSFC mean percentage change” value ([1]; All (masitinib n = 24), M12, LOCF) was 103 ± 189% and the “MSFC mean percentage change” value ([1]; All (masitinib n = 24), M18, LOCF) was “+96%”. For the same compound, the “MSFC mean percentage change” value ([1]; All (masitinib n = 24), M18, LOCF, listed as Masitinib) was 96 ± 191%, the “MSFC mean percentage change” value ([1]; PPMS (masitinib n = 9), M3, LOCF) was “+108%” and the “MSFC mean percentage change” value ([1]; PPMS (masitinib n = 9), M3, LOCF, listed as Masitinib) was 108 ± 435%. For the same compound, the “MSFC mean percentage change” value ([1]; PPMS (masitinib n = 9), M6, LOCF) was 202 ± 353%, the “MSFC mean percentage change” value ([1]; PPMS (masitinib n = 9), M9, LOCF) was 56 ± 410% and the “MSFC mean percentage change” value ([1]; PPMS (masitinib n = 9), M12, LOCF) was 134 ± 268%. For the same compound, the “MSFC mean percentage change” value ([1]; PPMS (masitinib n = 9), M18, LOCF) was “+134%”, the “MSFC mean percentage change” value ([1]; PPMS (masitinib n = 9), M18, LOCF, listed as Masitinib) was 134 ± 268% and the EDSS score course ([1]; PPMS population) was “stable”. For the same compound, the “Mean 9-HPT raw score change” value ([1]; at month 18) was -1.6 s, the “Mean PASAT-3″ raw score change” value ([1]; at month 18) was “+6.0” and the “Mean T25FW raw score change” value ([1]; at month 18) was “+1.6 seconds”. For the same compound, the death ([1]; during the study) was “No death”, the “MSQLI subscale SSS, mean percentage change from baseline” value ([1]; ex-post, n = 4) was −6.9 ± 29.0% and the “MSQLI subscale VIS, mean percentage change from baseline” value ([1]; ex-post, n = 4) was 0 ± 0%. The “MSQLI subscale SF-36, mean percentage change from baseline” value ([1]; ex-post, n = 5) was 12.7 ± 24.3%, the “MSQLI subscale PDQ, mean percentage change from baseline” value ([1]; ex-post, n = 6) was 1.1 ± 11.7% and the “MSQLI subscale BoCS, mean percentage change from baseline” value ([1]; ex-post, n = 7) was −3.1 ± 8.8%. For the same compound, the “MSQLI subscale MSSS, mean percentage change from baseline” value ([1]; ex-post, n = 7) was 6.2 ± 9.4%, the “MSQLI subscale PES, mean percentage change from baseline” value ([1]; ex-post, n = 7) was −3.9 ± 12.2% and the “MSQLI subscale BLCS, mean percentage change from baseline” value ([1]; ex-post, n = 8) was 21.5 ± 72.4%. For the same compound, the “MSQLI subscale MFIS, mean percentage change from baseline” value ([1]; ex-post, n = 8) was −3.0 ± 14.9%, the “MSQLI subscale MHI, mean percentage change from baseline” value ([1]; ex-post, n = 9) was 15.2 ± 25.99% and the “number of AEs reported by investigators” value ([1]; masitinib group n = 27) was 100. For the same compound, the “patients reporting AEs (adverse events)” value ([1]; masitinib group n = 27) was 85%, the “patients reporting a serious, non-fatal AE” value ([1]; masitinib group n = 27) was 33% and the “patients reporting a severe AE suspected to be related to therapy” value ([1]; masitinib group n = 27) was 26%. The “patients with an AE leading to masitinib discontinuation” value ([1]; masitinib group n = 27) was 26%, the “Asthenia, number of patients” value ([1]; masitinib n = 27) was 11 and the “Asthenia, percent of patients” value ([1]; masitinib n = 27) was 41%. For the same compound, the “Diarrhea, number of patients” value ([1]; masitinib n = 27) was 3, the “Diarrhea, percent of patients” value ([1]; masitinib n = 27) was 11% and the “Nausea, number of patients” value ([1]; masitinib n = 27) was 7. The “Nausea, percent of patients” value ([1]; masitinib n = 27) was 26%, the “Rash, number of patients” value ([1]; masitinib n = 27) was 3 and the “Rash, percent of patients” value ([1]; masitinib n = 27) was 11%. For the same compound, the “Urinary Tract Infection, number of patients” value ([1]; masitinib n = 27) was 3, the “Urinary Tract Infection, percent of patients” value ([1]; masitinib n = 27) was 11% and the “Weight Decreased, number of patients” value ([1]; masitinib n = 27) was 3. The “Weight Decreased, percent of patients” value ([1]; masitinib n = 27) was 11%, the “effect on MSQLI subscales (SF-36, MFIS, PES, PDQ, MHI, MSSS)” value ([1]; over the course of treatment) was “improved” and the “mean change in EDSS” value ([1]; overall, over 18 months) was < 0.5. For the same compound, the “MSFC mean percentage change” value ([1]; rfSPMS (masitinib n = 15), M3, LOCF) was “+60%”, the “MSFC mean percentage change” value ([1]; rfSPMS (masitinib n = 15), M3, LOCF, listed as Masitinib) was 60 ± 152% and the “MSFC mean percentage change” value ([1]; rfSPMS (masitinib n = 15), M6, LOCF) was 129 ± 223%. The “MSFC mean percentage change” value ([1]; rfSPMS (masitinib n = 15), M9, LOCF) was 78 ± 146%, the “MSFC mean percentage change” value ([1]; rfSPMS (masitinib n = 15), M12, LOCF) was 84 ± 130% and the “MSFC mean percentage change” value ([1]; rfSPMS (masitinib n = 15), M18, LOCF) was “+73%”. For the same compound, the “MSFC mean percentage change” value ([1]; rfSPMS (masitinib n = 15), M18, LOCF, listed as Masitinib) was 73 ± 131%, the EDSS score course ([1]; rfSPMS population) was “remained stable” and the “brain volume (MS-related imaging)” value ([1]; throughout the study, masitinib group) was “two patients experienced a brain volume increase”. The “inhibitory effect on c-Kit receptors” value [2] was “strong inhibitory effect”, the tolerability overall ([3]; 3 or 6 mg/kg/day oral) was “relatively well tolerated” and the EDSS ([3]; 36-week study) was “neither improvement nor progression”. The “average number of T1 lesions” value ([3]; after 12 weeks of treatment (run-in period 5.35), 4 patients) was 1.5 lesions, the “average volume of T1 lesions” value ([3]; after 12 weeks of treatment (run-in period 777 mm^3)) was 54 mm^3 and the “average number of T1 lesions” value ([3]; after 20 weeks of treatment (run-in period 5.35), 4 patients) was 0.25 lesions. The “average volume of T1 lesions” value ([3]; after 20 weeks of treatment (run-in period 777 mm^3)) was 40 mm^3, the “T1 gadolinium-enhancing lesion number” value ([3]; all patients, at consecutive time points during the study) was “reduced to none” and the “patients in whom both number and volume of T1 lesions decreased” value ([3]; during masitinib treatment) was 3/4. The “average number of T1 lesions” value [3, 4] was 1.0 lesion, the “average volume of T1 lesions” value [3, 4] was 99 mm^3 and the “number and volume of T2 hyperintense lesions and T1 hyperintense lesions” value ([3]; during treatment) was “remained globally stable”. For the same compound, the death ([3]; human, in vivo) was “No death”, the “total AEs reported during the treatment period” value ([3]; in two patients, all at doses of ≧6 mg/kg/day) was 11 and the “patients experiencing relapses during treatment” value ([3]; one patient out of four, three relapses) was 25%. The EDSS score maintained ([3]; patient in the study extension phase, to W84) was 2.5, the “relapse-free duration of individual patients” value ([3]; three patients, respectively) was 7 months and 11.5 months and 25 months and the “p value, mean clinical score, vehicle versus masitinib 12.5 mg/kg” value (mouse EAE model of MS; 12.5 mg/kg 2 times per day intraperitoneal) was “p < 0.001”. The “p value, mean clinical score, vehicle versus masitinib 25 mg/kg” value (mouse EAE model of MS; 25 mg/kg 2 times per day intraperitoneal) was “p < 0.001”, the “p value, mean clinical score, masitinib 25 mg/kg versus masitinib 12.5 mg/kg” value (mouse EAE model of MS; 2 times per day intraperitoneal) was “p < 0.001” and the “mean clinical score relative to vehicle” value (mouse EAE model of MS; both doses (25 and 12.5 mg/kg 2 times per day i.p.)) was “significant differences in mean clinical score; also recorded: significant reduction in disease”. The FcER1-mediated degranulation (human cord blood MCs) was “inhibition”.
